From patent US9993436B2, “Porous hollow fiber anti-solvent crystallization-based continuous method of polymer coating on submicron and nanoparticles” (New Jersey Institute of Technology, priority 2014, dated 2018)
≈ marks a conversion by molar mass, not a printed value.

Experiments:
physchem = experiment: physchem
Description: Eudragit RL 100 (Mw, 150,000; a copolymer of methyl methacrylate, ethyl acrylate and methacrylic acid ester) from Evonik-Degussa (Parsippany, N.J.) was employed as the coating polymer. Drug particles of Griseofulvin (GF) from Letco (Decatur, Ala.) were used without further treatment. […] Sodium dodecyl sulfate (SDS) was used as a surfactant (Sigma-Aldrich). Deionized water was used as the tube side anti-solvent liquid. The Nylon 6 hollow fibers were obtained from ENKA America Inc. (Asheville, N.C.).

[1] = Particle size distribution by laser diffraction particle size analyzer; format: physicochemical
Method: A laser diffraction particle size analyzer (LS230, Beckman Coulter, Brea, Calif.) was used to identify the extent of particle agglomeration. An aqueous micron-size suspension of the particle sample was prepared after 30 s of sonication to break the soft bonding between particles. After that a few drops of the suspension were introduced in the inlet of the instrument for analysis.
Residence time plays an important role in the PHFAC process since precipitation of both the polymer and the drug can be affected by the variation of residence time in the shell side of the module. Residence time can be simply altered by changing the shell-side feed solution flow rate. To identify the influence of the feed solution flow rate on the particle size distribution (PSD) of GF crystals, the solution containing the dissolved drug without any polymer was passed through the PHFAC module at different rates. The particle size distribution will be affected by the extent of supersaturation created and the rate at which supersaturation is created. Both are influenced by the rate at which the anti-solvent is introduced from the tube side to the shell side for a given feed solution flow rate.
Since one of the objectives of the study is to understand the impact of this novel PHFAC coating technique on the synthesized drug particles, the as-received uncoated GF particles and the Eudragit-coated GF particles obtained from the PHFAC were selected for particle size distribution analysis. A suspension of the samples in water was carefully dropped into the inlet of the laser diffraction particle size analyzer. The median size of the uncoated GF sample (11.6 μm) was close to the manufacturer's specification (10 μm). After polymer coating, the median size of the coated drug particles increased to 19.2 μm. One reason for the median size increase is obviously due to the coating which increases the particle size. Another reason is that the coating of GF by the polymer brings in a certain amount of agglomeration. Attachment of neighboring coated drug particles will take place due to the sticking tendency of the polymer-formed liquid bridges.
A laser diffraction particle size analyzer (LS 230, Beckman Coulter, Brea, Calif.) was used to determine the particle size distribution. An aqueous particle suspension of the particle sample was prepared by introducing the dry sample powder into DI water and sonicating it for about 30 seconds to break the soft bonding.

[2] = cited from earlier work
[3] = Dissolution test, USP II paddle method, UV at 296 nm; format: physicochemical; settings: up to 50 minutes; 0.27% SDS solution 900 mL, 37° C., paddle 50 rpm; FIG. 8
Method: Dissolution tests for the uncoated and coated Griseofulvin particles were determined via a Distek dissolution tester (North Brunswick, N.J.). According to the USP II paddle method, 0.27% of SDS solution with 900 mL volume was added into the vessel as a buffer solution. Temperature of the medium was maintained at 37° C. and a paddle stirring speed of 50 rpm was used. The sample used was equivalent to a dose of 35 mg of GF, and dropped into a dissolution vessel containing the buffer solution. Samples having a volume of 6 mL were taken out at 1, 3, 5, 10, 20, 30, 40, 50 and 80 min and immediately analyzed by UV spectroscopy (52100UV+, Cole-Parmer, Vernon Hills, Ill.) at a wavelength of 296 nm. As a blank benchmark for the test, a 0.27% SDS buffer solution was measured first.
To illustrate the advantages of a coated drug for controlled release, dissolution tests were performed on three samples: as-received drug, uncoated drug, and polymer-coated drug.

[4] = drug crystals from PHFAC module without any polymer in the feed solution, various shell/tube side flow rates

**Q.** What does the source list for `COC1=CC(=O)C[C@@H](C)[C@]12Oc1c(Cl)c(OC)cc(OC)c1C2=O` [GF, Griseofulvin]?
**A.** solubility in water (physchem): practically insoluble; solubility (physchem; organic solvent or mixture): 116 mM (≈ 40.9 mg/mL); Median size ([1]; suspension in water, FIG. 4): 11.6 μm; median size, manufacturer's specification [2]: 10 μm

**Q.** With `COC1=CC(=O)C[C@@H](C)[C@]12Oc1c(Cl)c(OC)cc(OC)c1C2=O` [X0, Griseofulvin] as the compound, how does the Median size [1, 4] read?
**A.** 1.617 μm

**Q.** What about the d10 [1, 4] of the same compound?
**A.** 1.001 μm

**Q.** And the d90 [1, 4]?
**A.** 2.219 μm

**Q.** For `COC1=CC(=O)C[C@@H](C)[C@]12Oc1c(Cl)c(OC)cc(OC)c1C2=O` [X1, Griseofulvin], which Median size [1, 4] is on record?
**A.** 7.333 μm

**Q.** What about the d10 [1, 4] of the same compound?
**A.** 4.977 μm

**Q.** And the d90 [1, 4]?
**A.** 15.29 μm

**Q.** What does the source list for `COC1=CC(=O)C[C@@H](C)[C@]12Oc1c(Cl)c(OC)cc(OC)c1C2=O` [X2, Griseofulvin]?
**A.** Median size [1, 4]: 11.83 μm; d10 [1, 4]: 2.117 μm; d90 [1, 4]: 30.30 μm

**Q.** With `COC1=CC(=O)C[C@@H](C)[C@]12Oc1c(Cl)c(OC)cc(OC)c1C2=O` [X3, Griseofulvin] as the compound, how does the Median size [1, 4] read?
**A.** 11.76 μm

**Q.** What about the d10 [1, 4] of the same compound?
**A.** 2.939 μm

**Q.** And the d90 [1, 4]?
**A.** 26.62 μm

**Q.** Which “dissolution profile (comparison of curves)” value [3] does the source give for `COC1=CC(=O)C[C@@H](C)[C@]12Oc1c(Cl)c(OC)cc(OC)c1C2=O` [uncoated GF, Griseofulvin] here?
**A.** essentially similar dissolution curves
